From patent publication US20120040976A1, “SMALL MOLECULE IMMUNOMODULATORS FOR ALZHEIMER'S DISEASE” (HUMAN BIOMOLECULAR RESEARCH INSTITUTE, priority 2008, published 2012)
In brackets after ≈: the same amount, converted by molar mass.

Experiments:
[1] = Metabolic stability in human liver microsomes; assay type: in vitro ADME; details: human, read-out: Half life, t1/2 HLM
[2] = Metabolic stability in human S9 fraction; assay type: in vitro ADME; details: read-out: Half life, t1/2 S9
[3] = Chemical stability (H2O, pH 7.4); assay type: physicochemical
Average solubility = assay type: physicochemical
MGAT3 [4] = assay: MGAT3 transcription ratio, AD patient / control PBMCs (qPCR); assay type: cell-based, human; details: Aβ stimulation
Method: (§1) qPCR reactions of cultured monocyte cDNAs. One μL total cellular cDNA per reaction is used in triplicate reactions for each test gene, and for each culture treatment. SYBR-Green reactions were run on a Continuous Fluorescence real-time thermocycler and analyzed. Cycle threshold (Ct) values are recorded for each replicate reaction, and are then averaged and normalized against mean Ct values from one or more control genes. Fold-expression differences relative to untreated cells are determined using the 2^−ΔΔCt method as previously described. Data from the curcumin concentration range are plotted in order to determine EC50 values (concentrations producing one-half maximal stimulant activity), which are used for comparisons of potency between different compounds. Data are also evaluated for each gene with regard to sensitivity, maximally effective concentration of curcuminoid, response to Aβ, and overall magnitude of fold-expression changes.
(§2) MGAT3 and/or TLR transcription were tested by qPCR in human monocyte cells treated with curcuminoids and compared the results to those treated with vehicle (Table 7). As discussed above, activation or up-regulation of macrophage MGAT3 or TLR's results in many functional outcomes, including the enhancement of […] and removal of Aβ, increased apoptosis, secretion of inflammatory cytokines, and other anti-AD antimicrobial activities. […] Thus, the ratio of MGAT3 or TLR transcription upon Aβ stimulation of human monocytes versus vehicle treatment provides an indicator and sensitive method to test the in vitro efficacy of drug candidates. […] The relative biological activity of the curcumin analogs in AD patient and control cells was ascertained in the in vitro Aβ assay described above (see Example 2).

TLR 2 = TLR 2 transcription ratio, AD patient / control PBMCs (qPCR); assay type: cell-based, human; details: Aβ stimulation
Method: as §1, §2

TLR 3 = TLR 3 transcription ratio, AD patient / control PBMCs (qPCR); assay type: cell-based, human; details: Aβ stimulation
Method: as §1, §2

TLR 4 = TLR 4 transcription ratio, AD patient / control PBMCs (qPCR); assay type: cell-based, human; details: Aβ stimulation
Method: as §1, §2

Average permeability = assay type: in vitro ADME; details: not told
MGAT3 [5] = assay: MGAT3 gene expression by qPCR in U-937 human monocytic cells treated with curcumins plus Aβ; assay type: cell-based; details: human monocytic cells (U-937), curcumin plus Aβ
Method: (§3) Cell culture conditions for monocytic cell lines. Human and mouse monocyte cell lines are grown in RPMI-1640 medium with 10% fetal bovine serum (FBS), plus glutamine and pen/strep. For treatment with compounds (curcuminoids+/−Aβ), replicate sets of 0.5-1.0 mL cultures containing 1-2×10^6 cells are set up in the wells of 48-well tissue culture plates. Both replicate sets have at least one control well receiving no added curcuminoid to provide baseline expression controls for untreated, and Aβ-only treated cells. Remaining wells receive curcuminoid in a range of 10-fold serial dilutions in DMSO, typically from […] Cultures are incubated for 20-24 hours (“overnight”) at 37° C. in atmosphere with 5% CO2. After one overnight, to one of replicate sets of cultures is added Aβ (1-42) peptide to a final concentration of 5 μg/mL.
(§4) RNA isolation and cDNA synthesis. After the first overnight incubation in the presence of curcuminoid, cells from one replicate set of wells are collected by centifugation. RNAs are extracted from pelleted cells using miniprep column kits following manufacturer's protocol for animal cells. […] of total cellular RNA from each well is quantitated using a Nanodrop spectrophotometer, and first-strand total cDNA is prepared from 0.3-1.0 μg RNA by random-hexamer priming. Following the second 20 hr. incubation in the presence of Aβ, RNA extractions and cDNA synthesis are similarly performed.
Assay development. Gene-specific mRNA levels are determined using a real-time thermocycler, and by normalizing to expression of one or more control genes. Assays for quantifying mRNA levels are based on gene sequences reported in NCBI Genbank. PCR oligonucleotide primers are selected spanning introns to minimize the opportunity for amplication from any contaminating genomic DNA in the RNA preps. Oligonucleotides are typically tested and used at a concentration of 200 nM in qPCR reactions containing SYBR dye. Control reactions include template from cDNA synthesis reactions either + or − reverse transcriptase (RT), as well as no-template controls (ntc). […] Melt curves based on incremental 0.5° C. increases are determined for new assays to test for uniformity of amplified products. […]
qPCR reactions of cultured monocyte cDNAs. […] SYBR-Green reactions were run on a Continuous Fluorescence real-time thermocycler and analyzed. Cycle threshold (Ct) values are recorded for each replicate reaction, and are then averaged and normalized against mean Ct values from one or more control genes. Fold-expression differences relative to untreated cells are determined using the 2^−ΔΔCt method as previously described. […] Data are also evaluated for each gene with regard to sensitivity, maximally effective concentration of curcuminoid, response to Aβ, and overall magnitude of fold-expression changes. […]

TLR2 = TLR2 gene expression by qPCR in U-937 human monocytic cells treated with curcumins plus Aβ; assay type: cell-based; details: human monocytic cells (U-937), curcumin plus Aβ
Method: as §3, §4
(§5) Assay development. Gene-specific mRNA levels are determined using a real-time thermocycler, and by normalizing to expression of one or more control genes. Assays for quantifying mRNA levels are based on gene sequences reported in NCBI Genbank. PCR oligonucleotide primers are selected spanning introns to minimize the opportunity for amplication from any contaminating genomic DNA in the RNA preps. Oligonucleotides are typically tested and used at a concentration of 200 nM in qPCR reactions containing SYBR dye. Control reactions include template from cDNA synthesis reactions either + or − reverse transcriptase (RT), as well as no-template controls (ntc). All reactions are performed in triplicate. Reactions are typically run with 40 cycles of 95° C. (10 sec) and 58° C. (30 sec). Melt curves based on incremental 0.5° C. increases are determined for new assays to test for uniformity of amplified products. Reaction conditions are modified as needed depending on initial test results. ‘Working’ assays are selected based on clear RNA-dependent amplification and absence of product in ‘ntc’ reactions. The following assay primers are used: […]
(§6) qPCR reactions of cultured monocyte cDNAs. One μL total cellular cDNA per reaction is used in triplicate reactions for each test gene, and for each culture treatment. SYBR-Green reactions were run on a Continuous Fluorescence real-time thermocycler and analyzed. Cycle threshold (Ct) values are recorded for each replicate reaction, and are then averaged and normalized against mean Ct values from one or more control genes. Fold-expression differences relative to untreated cells are determined using the 2^−ΔΔCt method as previously described. […] Data are also evaluated for each gene with regard to sensitivity, maximally effective concentration of curcuminoid, response to Aβ, and overall magnitude of fold-expression changes. […]

TLR3 = TLR3 gene expression by qPCR in U-937 human monocytic cells treated with curcumins plus Aβ; assay type: cell-based; details: human monocytic cells (U-937), curcumin plus Aβ
Method: as §3, §4, §5, §1
(§7) Data showing in vitro up-regulation of genes associated with Aβ phagocytosis in response to curcumins. Natural curcumins and synthetic analogs were tested in U-937 human monocyte cells in vitro for their ability to modulate expression of the genes MGAT3 and TLRs −2, −3, and −4. […]

TLR4 = TLR4 gene expression by qPCR in U-937 human monocytic cells treated with curcumins plus Aβ; assay type: cell-based; details: human monocytic cells (U-937), curcumin plus Aβ
Method: as §3, §4, §5, §6

VDR = VDR gene expression by qPCR in U-937 human monocytic cells treated with curcumins plus Aβ; assay type: cell-based; details: human monocytic cells (U-937), curcumin plus Aβ
Method: as §3, §4, §5, §1, §7

[6] = water (aqueous solution), pH 7.4, value given in h, read-out: Chemical stability t1/2 pH 7.4 (converted)
[7] = water, H2O, value given in h, read-out: Chemical stability t1/2 H2O (converted)
[8] = water, H2O, read-out: Chemical stability t1/2 H2O (converted)

Row | Compound | half-life [1] | half-life [2] | half-life [3, 6] | half-life [3, 7] | solubility (Average solubility) | Papp (Average permeability) | IC50 (Anti-oxidant activity) | half-life [3, 8] | Solubility compared with parent compounds (in words) (Average solubility) | Relative ratio of MGAT3 transcription in AD patient / control PBMC's (MGAT3 [4]) | Relative ratio of TLR 2 transcription in AD patient / control PBMC's (TLR 2) | Relative ratio of TLR 3 transcription in AD patient / control PBMC's (TLR 3) | Relative ratio of TLR 4 transcription in AD patient / control PBMC's (TLR 4) | Chemical stability H2O (stable/unstable) ([3]; H2O) | Chemical stability pH 7.4 (stable/unstable) ([3]; pH 7.4) | Relative gene expression MGAT3, increased expression relative to control cells (MGAT3 [5]) | Relative gene expression TLR2, increased expression relative to control cells (TLR2) | Relative gene expression TLR3, increased expression relative to control cells (TLR3) | Relative gene expression TLR4, increased expression relative to control cells (TLR4) | Relative gene expression VDR, increased expression relative to control cells (VDR)
1 | COc1ccc(F)cc1/C=C/C(=O)/C=C(O)/C=C/c1cc(F)ccc1OC [Compound 26, 1,7-bis-(5-Fluoro-2-methoxyphenyl)-5-hydroxy-hepta-1,4,6-trien-3-one] | 59.2 min | 8.2 min |  |  | 0.00044 mg/mL (≈ 1.18 µM) | 1290 nm/s | > 250 µM |  |  |  | TLR 2 + ((+) indicates a ratio of 1.0-1.5) | TLR 3 ++ ((++) indicates a ratio of 1.5-2.0) | TLR 4 + ((+) indicates a ratio of 1.0-1.5) | stable (stability half-lives greater than 5 hours) | stable (stability half-lives greater than 5 hours) |  |  |  |  | 
2 | NCCCCC(N)C(=O)Oc1ccc(/C=C/C(=O)/C=C(O)/C=C/c2ccc(OC(=O)C(N)CCCCN)cc2)cc1 (stereo not shown) [Compound 34, 4,4′-(3,5-Dioxohepta-1,6-diene-1,7-diyl)bis(4,1-phenylene) bis(2,6-diaminohexanoate)] | 19.9 min | 4.5 min |  |  |  |  | > 250 µM | 10.2 min |  | ++ ((++) indicates a ratio of 1.5-2.0) | TLR 2 +++ ((+++ to ++++) indicates a ratio of 2.0 and above) | TLR 3 ++ ((++) indicates a ratio of 1.5-2.0) | TLR 4 + ((+) indicates a ratio of 1.0-1.5) |  | unstable^b (stability half-lives less than 5 minutes) |  |  |  |  | 
3 | COc1cc(/C=C/C(=O)/C=C(O)/C=C/c2ccc(OC(=O)C(N)C(C)C)c(OC)c2)ccc1OC(=O)C(N)C(C)C (stereo not shown) [Compound 35, 4,4′-(3,5-Dioxohepta-1,6-diene-1,7-diyl)bis(2-methoxy-4,1-phenylene)bis(2-amino-3-methylbutanoate)] | 55.8 min | 9 min | 138 min | 1090 min | 0.0228 mg/mL (≈ 40.2 µM) | 5720 nm/s |  |  |  | ++ ((++) indicates a ratio of 1.5-2.0) | TLR 2 +++ ((+++ to ++++) indicates a ratio of 2.0 and above) |  | TLR 4 + ((+) indicates a ratio of 1.0-1.5) |  |  |  |  |  |  | 
4 | COc1cc(/C=C/C(=O)/C=C(O)/C=C/c2ccc(OC(=O)C(N)CCCCN)c(OC)c2)ccc1OC(=O)C(N)CCCCN (stereo not shown) [Compound 36, 4,4′-(3,5-dioxohepta-1,6-diene-1,7-diyl)bis(2-methoxy-4,1-phenylene)bis(2,6-diaminohexanoate)] | 19.9 min | 4.5 min |  |  | 0.0306 mg/mL (≈ 49 µM) | 7180 nm/s |  | 10.2 min | significantly improved solubility |  |  |  |  |  | unstable (stability half-lives less than 5 minutes) | + ((+) <20-fold) | + ((+) <20-fold) | + ((+) <20-fold) | + ((+) <20-fold) | + ((+) <20-fold)

Further lines, with some results ahead:

Row | half-life [1] | half-life [2] | half-life [3, 6] | half-life [3, 7] | solubility (Average solubility) | Papp (Average permeability) | IC50 (Anti-oxidant activity) | half-life [3, 8] | Solubility compared with parent compounds (in words) (Average solubility) | Compound | Relative ratio of MGAT3 transcription in AD patient / control PBMC's (MGAT3 [4]) | Relative ratio of TLR 2 transcription in AD patient / control PBMC's (TLR 2) | Relative ratio of TLR 3 transcription in AD patient / control PBMC's (TLR 3) | Relative ratio of TLR 4 transcription in AD patient / control PBMC's (TLR 4) | Chemical stability H2O (stable/unstable) ([3]; H2O) | Chemical stability pH 7.4 (stable/unstable) ([3]; pH 7.4) | Relative gene expression MGAT3, increased expression relative to control cells (MGAT3 [5]) | Relative gene expression TLR2, increased expression relative to control cells (TLR2) | Relative gene expression TLR3, increased expression relative to control cells (TLR3) | Relative gene expression TLR4, increased expression relative to control cells (TLR4) | Relative gene expression VDR, increased expression relative to control cells (VDR)
5 | 63.6 min | 39.5 min | 1530 min | 1190 min | 0.00073 mg/mL (≈ 1.73 µM) |  |  |  |  | COc1cc(N(C)C)ccc1/C=C/C(=O)/C=C(O)/C=C/c1ccc(N(C)C)cc1OC [Compound 3, 1,7-Bis(4-dimethylamino-2-methoxyphenyl)-5-hydroxy-hepta-1,4,6-trien-3-one] | ++ ((++) indicates a ratio of 1.5-2.0) | TLR 2 ++ ((++) indicates a ratio of 1.5-2.0) | TLR 3 ++ ((++) indicates a ratio of 1.5-2.0) | TLR 4 ++ ((++) indicates a ratio of 1.5-2.0) |  |  |  |  |  |  | 
6 | 127 min | 184 min |  |  |  | 48 nm/s |  |  |  | COc1cc(N(C)C)ccc1/C=C/C(O)=C1\CCC/C(=C\c2ccc(N(C)C)cc2OC)C1=O [Compound 7, 2-(4-(Dimethylamino-2-methoxybenzylidene)-3-(4-(dimethylamino)-2-methoxyphenyl)-1-hydroxyallylidene)cyclohexanone] | +++ ((+++ to ++++) indicates a ratio of 2.0 and above) |  |  |  | stable^a (stability half-lives greater than 5 hours) | stable (stability half-lives greater than 5 hours) |  |  |  |  | 
